Data on 20 molecules can be found in patent publication US6469146B1, “Radiopharmaceutical products suitable for the selective labeling of lymphocytes, and their preparation” (Cis Bio International, priority 2000, dated 2002).

Experiment [1] concerns human blood. Kind of experiment: Labeling of blood cells: yield of cell labeling in whole blood. As to conditions: 2 mCi (74 MBq) in 3 mL fresh human blood, 10 minutes, after washings. The format is cell-based. The protocol: (§1) The radiopharmaceuticals of table I (2 mCi; 74 MBq) are incubated in 3 mL of a fresh sample of human blood for 10 minutes under slow shaking. The blood composition depends upon each sample taken from healthy volunteers (average composition: 1.6±0.3.10^10 Red Globules (RG) and 2.2±0.3.10^7 White Globules (WG) with 1.2±0.3.10^7 Polymorphs (57±9%) and 0.7±0.3.10^7 Lymphocytes (35±4%)]. Non-bound radioactivity is removed by successive washings (2×10 mL of RPMI culture medium 1640) of 10 minutes at 600 g. The yield of cell labeling is determined in a CAPINTEC CRC 120 activimeter. Cell viability is controlled by the Trypan blue exclusion test.
(§2) The results obtained, namely the labeling yield (Yield) and the percentages of activity in the separated fractions are given in tables 3 to 5.

For experiment [2], the system named is whole blood. Kind of experiment: Cell separation on whole blood (Polymorphprep gradient), activity in separated fractions. The format is cell-based, human. Set-up: tested at 2 mCi (74 MBq) in 3 mL blood. The conditions noted are these: for Cell separation on whole blood (activity %): Polymorphprep: fraction: Polymorphprep gradient; for Cell separation on whole blood (activity %): Erythrocytes: fraction: erythrocytes; for Cell separation on whole blood (activity %): Leukocytes: fraction: leukocytes; for Cell separation on whole blood (activity %): Medium: fraction: medium. The protocol: as §1, §2
In a first experiment, a separation of the blood constituents is made on a double density Polymorphprep® gradient.
Whole blood from healthy volunteers is labeled with 2 mCi of [^99mTc(ArCS3)2(ArCS2)] following the method described above. The blood constituents are then separated by the Polymorphprep® double density gradient into two separate fractions: lymphocytes and polymorphs/erythrocytes. The whole blood, diluted in 2-3 mL RPMI, is initially delicately placed on the Polymorphprep® gradient and then centrifuged (300 g, 20 min, 37° C.). […] Counting is made on each fraction using a MAXM Y07 00 367 counter in order to confirm cell constitution.

Turning to `Cc1ccc(C(=S)S[S][99Tc]([S]SC(=S)c2ccc(C)cc2)[S]C(=S)c2ccc(C)cc2)cc1` [Example 5, [^99mTc(4-MePhCS3)2(4-MePhCS2)]], the “Yield (±3%) of cell labeling” value in experiment [1] turned out to be 98%. In addition, in experiment [2], the “Cell separation on whole blood (activity %): Polymorphprep” value is on record as 3%, the “Cell separation on whole blood (activity %): Erythrocytes” value is 17%, the “Cell separation on whole blood (activity %): Leukocytes” value is listed as 80% and the “Cell separation on whole blood (activity %): Medium” value was found to be 0%.

As to `Cc1ccc(C(=S)S[S][99Tc]([S]SC(=S)c2ccc(C)cc2)[S]C(=S)c2ccc(C)cc2)cc1` [Example 6, [^99mTc(4-MePhCS3)2(4-MePhCS2)]], the “Yield (±3%) of cell labeling” value in experiment [1] is reported as 95%. Moreover, in experiment [2], the “Cell separation on whole blood (activity %): Polymorphprep” value came to 2%, the “Cell separation on whole blood (activity %): Erythrocytes” value is 20% and the “Cell separation on whole blood (activity %): Leukocytes” value is reported as 78%.

Consider `CCc1ccc(C(=S)S[S][99Tc]([S]SC(=S)c2ccc(CC)cc2)[S]C(=S)c2ccc(CC)cc2)cc1` [Example 7, [^99mTc(4-EtPhCS3)2(4-EtPhCS2)]], for which the “Yield (±3%) of cell labeling” value in experiment [1] is listed as 93%. Further, in experiment [2], the “Cell separation on whole blood (activity %): Polymorphprep” value came out at 3%, the “Cell separation on whole blood (activity %): Erythrocytes” value is 12%, the “Cell separation on whole blood (activity %): Leukocytes” value came out at 83% and the “Cell separation on whole blood (activity %): Medium” value came out at 2%.

`CCc1ccc(C(=S)S[S][99Tc]([S]SC(=S)c2ccc(CC)cc2)[S]C(=S)c2ccc(CC)cc2)cc1` [Example 8, [^99mTc(4-EtPhCS3)2(4-EtPhCS2)]]: in experiment [1], the “Yield (±3%) of cell labeling” value is 99%. For the same molecule, in experiment [2], the “Cell separation on whole blood (activity %): Erythrocytes” value is on record as 14%, the “Cell separation on whole blood (activity %): Leukocytes” value came to 85% and the “Cell separation on whole blood (activity %): Medium” value is 1%.

Regarding `CCc1ccccc1C(=S)S[S][99Tc]([S]SC(=S)c1ccccc1CC)[S]C(=S)c1ccccc1CC` [Example 9, [^99mTc(2-EtPhCS3)2(2-EtPhCS2)]], the “Yield (±3%) of cell labeling” value in experiment [1] is 72%. Besides, in experiment [2], the “Cell separation on whole blood (activity %): Polymorphprep” value stood at 2%, the “Cell separation on whole blood (activity %): Erythrocytes” value turned out to be 24%, the “Cell separation on whole blood (activity %): Leukocytes” value is on record as 72% and the “Cell separation on whole blood (activity %): Medium” value is reported as 2%.

In the case of `CCc1ccccc1C(=S)S[S][99Tc]([S]SC(=S)c1ccccc1CC)[S]C(=S)c1ccccc1CC` [Example 10, [^99mTc(2-EtPhCS3)2(2-EtPhCS2)]], the “Yield (±3%) of cell labeling” value in experiment [1] is reported as 92%. In experiment [2], the “Cell separation on whole blood (activity %): Polymorphprep” value was determined as 2%, the “Cell separation on whole blood (activity %): Erythrocytes” value came to 22%, the “Cell separation on whole blood (activity %): Leukocytes” value stood at 76% and the “Cell separation on whole blood (activity %): Medium” value is 2%.

With `CCCCc1ccc(C(=S)S[S][99Tc]([S]SC(=S)c2ccc(CCCC)cc2)[S]C(=S)c2ccc(CCCC)cc2)cc1` [Example 11, [^99mTc(4-nBuPhCS3)2(4-nBuPhCS2)]], in experiment [1], the “Yield (±3%) of cell labeling” value worked out at 97%. Also, in experiment [2], the “Cell separation on whole blood (activity %): Polymorphprep” value was 1%, the “Cell separation on whole blood (activity %): Erythrocytes” value was 53% and the “Cell separation on whole blood (activity %): Leukocytes” value is 46%.

As for `CCCCc1ccc(C(=S)S[S][99Tc]([S]SC(=S)c2ccc(CCCC)cc2)[S]C(=S)c2ccc(CCCC)cc2)cc1` [Example 12, [^99mTc(4-nBuPhCS3)2(4-nBuPhCS2)]], the “Yield (±3%) of cell labeling” value in experiment [1] is listed as 100%. Also, in experiment [2], the “Cell separation on whole blood (activity %): Polymorphprep” value turned out to be 4%, the “Cell separation on whole blood (activity %): Erythrocytes” value came out at 29%, the “Cell separation on whole blood (activity %): Leukocytes” value was found to be 66% and the “Cell separation on whole blood (activity %): Medium” value turned out to be 1%.

In the case of `CCOc1ccc(C(=S)S[S][99Tc]([S]SC(=S)c2ccc(OCC)cc2)[S]C(=S)c2ccc(OCC)cc2)cc1` [Example 13, [^99mTc(4-EtOPhCS3)2(4-EtOPhCS2)]], the “Yield (±3%) of cell labeling” value in experiment [1] was determined as 99%. Also, in experiment [2], the “Cell separation on whole blood (activity %): Polymorphprep” value came to 1%, the “Cell separation on whole blood (activity %): Erythrocytes” value was 29% and the “Cell separation on whole blood (activity %): Leukocytes” value came to 70%.

As to `CCOc1ccc(C(=S)S[S][99Tc]([S]SC(=S)c2ccc(OCC)cc2)[S]C(=S)c2ccc(OCC)cc2)cc1` [Example 14, [^99mTc(4-EtOPhCS3)2(4-EtOPhCS2)]], the “Yield (±3%) of cell labeling” value in experiment [1] stood at 97%. Moreover, in experiment [2], the “Cell separation on whole blood (activity %): Polymorphprep” value is listed as 3%, the “Cell separation on whole blood (activity %): Erythrocytes” value was 22% and the “Cell separation on whole blood (activity %): Leukocytes” value amounted to 75%.

As for `COc1cccc(C(=S)S[S][99Tc]([S]SC(=S)c2cccc(OC)c2)[S]C(=S)c2cccc(OC)c2)c1` [Example 15, [^99mTc(3-MeOPhCS3)2(3-MeOPhCS2)]], the “Yield (±3%) of cell labeling” value in experiment [1] is listed as 99%. Further, in experiment [2], the “Cell separation on whole blood (activity %): Polymorphprep” value is listed as 2%, the “Cell separation on whole blood (activity %): Erythrocytes” value is recorded as 25% and the “Cell separation on whole blood (activity %): Leukocytes” value is listed as 73%.

In the case of `COc1cccc(C(=S)S[S][99Tc]([S]SC(=S)c2cccc(OC)c2)[S]C(=S)c2cccc(OC)c2)c1` [Example 16, [^99mTc(3-MeOPhCS3)2(3-MeOPhCS2)]], the “Yield (±3%) of cell labeling” value in experiment [1] was found to be 98%. In experiment [2], the “Cell separation on whole blood (activity %): Polymorphprep” value is 2%, the “Cell separation on whole blood (activity %): Erythrocytes” value was 16%, the “Cell separation on whole blood (activity %): Leukocytes” value was determined as 79% and the “Cell separation on whole blood (activity %): Medium” value is on record as 3%.

As for `Oc1ccc(C(=S)S[S][99Tc]([S]SC(=S)c2ccc(O)cc2)[S]C(=S)c2ccc(O)cc2)cc1` [Example 17, [^99mTc(4-OHPhCS3)2(4-OHPhCS2)]], in experiment [1], the “Yield (±3%) of cell labeling” value was 93%. Moreover, in experiment [2], the “Cell separation on whole blood (activity %): Polymorphprep” value was determined as 1%, the “Cell separation on whole blood (activity %): Erythrocytes” value came out at 12%, the “Cell separation on whole blood (activity %): Leukocytes” value was 85% and the “Cell separation on whole blood (activity %): Medium” value is recorded as 2%.

Regarding `Oc1ccc(C(=S)S[S][99Tc]([S]SC(=S)c2ccc(O)cc2)[S]C(=S)c2ccc(O)cc2)cc1` [Example 18, [^99mTc(4-OHPhCS3)2(4-OHPhCS2)]], in experiment [1], the “Yield (±3%) of cell labeling” value was found to be 93%. For the same molecule, in experiment [2], the “Cell separation on whole blood (activity %): Polymorphprep” value was found to be 3%, the “Cell separation on whole blood (activity %): Erythrocytes” value is 7%, the “Cell separation on whole blood (activity %): Leukocytes” value came out at 89% and the “Cell separation on whole blood (activity %): Medium” value was 1%.

Turning to `Fc1ccc(C(=S)S[S][99Tc]([S]SC(=S)c2ccc(F)cc2)[S]C(=S)c2ccc(F)cc2)cc1` [Example 19, [^99mTc(4-FPhCS3)2 (4-FPhCS2)]], the “Yield (±3%) of cell labeling” value in experiment [1] is 99%. Further, in experiment [2], the “Cell separation on whole blood (activity %): Polymorphprep” value is 4%, the “Cell separation on whole blood (activity %): Erythrocytes” value amounted to 15%, the “Cell separation on whole blood (activity %): Leukocytes” value was 80% and the “Cell separation on whole blood (activity %): Medium” value is listed as 1%.

With `Fc1ccc(C(=S)S[S][99Tc]([S]SC(=S)c2ccc(F)cc2)[S]C(=S)c2ccc(F)cc2)cc1` [Example 20, [^99mTc(4-FPhCS3)2 (4-FPhCS2)]], the “Yield (±3%) of cell labeling” value in experiment [1] was determined as 91%. Besides, in experiment [2], the “Cell separation on whole blood (activity %): Polymorphprep” value was 4%, the “Cell separation on whole blood (activity %): Erythrocytes” value came to 12% and the “Cell separation on whole blood (activity %): Leukocytes” value is given as 84%.

On to `Cc1cc(C)c(C(=S)S[S][99Tc]([S]SC(=S)c2cc(C)c(C)cc2C)[S]C(=S)c2cc(C)c(C)cc2C)cc1C` [Example 21, [^99mTc(2,4,5-Me3PhCS3)2(2,4,5-Me3PhCS2)]], for which the “Yield (±3%) of cell labeling” value in experiment [1] amounted to 90%. For the same molecule, in experiment [2], the “Cell separation on whole blood (activity %): Polymorphprep” value came to 2%, the “Cell separation on whole blood (activity %): Erythrocytes” value amounted to 15%, the “Cell separation on whole blood (activity %): Leukocytes” value was 82% and the “Cell separation on whole blood (activity %): Medium” value stood at 1%.

Turning to `Cc1cc(C)c(C(=S)S[S][99Tc]([S]SC(=S)c2cc(C)c(C)cc2C)[S]C(=S)c2cc(C)c(C)cc2C)cc1C` [Example 22, [^99mTc(2,4,5-Me3PhCS3)2(2,4,5-Me3PhCS2)]], in experiment [1], the “Yield (±3%) of cell labeling” value is on record as 95%. Further, in experiment [2], the “Cell separation on whole blood (activity %): Polymorphprep” value is recorded as 2%, the “Cell separation on whole blood (activity %): Erythrocytes” value was found to be 20% and the “Cell separation on whole blood (activity %): Leukocytes” value worked out at 78%.

With `S=C(S[S][99Tc]([S]SC(=S)c1cccc2ccccc12)[S]C(=S)c1cccc2ccccc12)c1cccc2ccccc12` [Example 23, [^99mTc(1-naphCS3)2(1-naphCS2)]], in experiment [1], the “Yield (±3%) of cell labeling” value is listed as 71%. In experiment [2], the “Cell separation on whole blood (activity %): Polymorphprep” value is reported as 5%, the “Cell separation on whole blood (activity %): Erythrocytes” value stood at 46%, the “Cell separation on whole blood (activity %): Leukocytes” value came to 43% and the “Cell separation on whole blood (activity %): Medium” value was 6%.

As to `S=C(S[S][99Tc]([S]SC(=S)c1cccc2ccccc12)[S]C(=S)c1cccc2ccccc12)c1cccc2ccccc12` [Example 24, [^99mTc(1-naphCS3)2(1-naphCS2)]], the “Yield (±3%) of cell labeling” value in experiment [1] is listed as 74%. In experiment [2], the “Cell separation on whole blood (activity %): Erythrocytes” value is 46%, the “Cell separation on whole blood (activity %): Leukocytes” value stood at 53% and the “Cell separation on whole blood (activity %): Medium” value is 1%.
